Laboratory results published in patent US11173145B2, “Compounds useful as inhibitors of indoleamine 2,3-dioxygenase and/or tryptophan dioxygenase” (Board of Regents, The University of Texas System, priority 2017, dated 2021).

Target: T1, IDO1 (Homo sapiens, UniProt P14902)
T1 construct: endogenous in cells; host or cells: HeLa cells (ATCC), IFNgamma-induced
Assay: IDO1 cell-based assay (HeLa cells, IFNgamma-induced, N-formylkynurenine/L-tryptophan by RFMS)
Conditions: 10 ng/mL IFNgamma, 24 hours
Summary of the method: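 HeLa cells stimulated with 10 ng/mL IFNgamma and exposed to compound (0.5% DMSO final) for 24 h at 37 °C. Conditioned media deproteinized, then N-formylkynurenine and L-tryptophan quantified by RapidFire MS with deuterated tryptophan internal standard; IC50 by curve fitting. Viability checked by CellTiter-Glo.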

T1 sequence (P14902 whole entry): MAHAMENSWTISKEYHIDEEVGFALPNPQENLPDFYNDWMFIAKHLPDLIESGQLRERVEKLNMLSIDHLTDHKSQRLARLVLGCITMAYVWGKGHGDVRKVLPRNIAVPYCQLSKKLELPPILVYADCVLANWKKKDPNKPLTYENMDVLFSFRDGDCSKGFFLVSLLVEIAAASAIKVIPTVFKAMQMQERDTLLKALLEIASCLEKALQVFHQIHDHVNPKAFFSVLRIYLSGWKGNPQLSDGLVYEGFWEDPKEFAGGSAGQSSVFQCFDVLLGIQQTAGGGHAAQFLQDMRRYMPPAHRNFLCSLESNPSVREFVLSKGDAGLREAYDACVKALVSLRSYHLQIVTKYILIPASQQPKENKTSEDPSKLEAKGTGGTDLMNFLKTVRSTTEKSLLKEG

Compound	IC50
O=C(Nc1ccc(Cl)cc1)N[C@H]1[C@@H]2C[C@@H](Oc3ccnc4ccc(F)cc34)C[C@@H]21 [Compound 10, 1-(4-chlorophenyl)-3-((1R,3s,5S,6r)-3-((6-fluoroquinolin-4-yl)oxy)bicyclo[3.1.0]hexan-6-yl)urea]	< 0.2 µM
CCC(NC(=O)c1ccc(Cl)cc1)[C@H]1[C@@H]2C[C@@H](Oc3c(F)cccc3F)C[C@@H]21 (stereo partly drawn) [Compound 44, 4-chloro-N-(1-((1R,3s,5S,6r)-3-(2,6-difluorophenoxy)bicyclo[3.1.0]hexan-6-yl)propyl)benzamide]	< 0.2 µM
CCC(NC(=O)c1ccc(Cl)cc1)[C@H]1[C@@H]2C[C@@H](Oc3cc(=O)n(C)c4ccccc34)C[C@@H]21 (stereo partly drawn) [Compound 50, 4-chloro-N-(1-((1R,3s,5S,6r)-3-((1-methyl-2-oxo-1,2-dihydroquinolin-4-yl)oxy)bicyclo[3.1.0]hexan-6-yl)propyl)benzamide]	< 0.2 µM
CCC(NC(=O)c1ccc(Cl)cc1)[C@H]1[C@@H]2C[C@@H](Oc3ccccc3CC(N)=O)C[C@@H]21 (stereo partly drawn) [Compound 45, N-(1-((1R,3s,5S,6r)-3-(2-(2-amino-2-oxoethyl)phenoxy)bicyclo[3.1.0]hexan-6-yl)propyl)-4-chlorobenzamide]	< 0.2 µM
CCC(NC(=O)c1ccc(Cl)cc1)[C@H]1[C@@H]2C[C@H](O)C[C@@H]21 (stereo partly drawn) [Compound 1, 4-chloro-N-(1-((1R,3r,5S,6r)-3-hydroxybicyclo[3.1.0]hexan-6-yl)propyl)benzamide]	2 to 5 µM

Now from value to compound:

IC50	Compound
> 5 µM	Cn1cc(C(=O)NC[C@@H]2[C@H]3C[C@H](n4cnc5cc(F)c(F)cc54)C[C@@H]23)cn1 [Compound 319, N-(((1R,3s,5S,6r)-3-(5,6-difluoro-1H-benzo[d]imidazol-1-yl)bicyclo[3.1.0]hexan-6-yl)methyl)-1-methyl-1H-pyrazole-4-carboxamide]
< 0.2 µM	CCC(NC(=O)c1ccc(Cl)cc1)[C@H]1[C@@H]2C[C@@H](Oc3ccnc(C)c3F)C[C@@H]21 (stereo partly drawn) [Compound 93, 4-chloro-N-(1-((1R,3s,5S,6r)-3-((3-fluoro-2-methylpyridin-4-yl)oxy)bicyclo[3.1.0]hexan-6-yl)propyl)benzamide]
0.2 to 2 µM	O=C(NC(CCO)[C@H]1[C@@H]2C[C@@H](Oc3cnnc4ccccc34)C[C@@H]21)c1ccc(Cl)cc1 (stereo partly drawn) [Compound 139, 4-chloro-N-(1-((1R,3s,5S,6r)-3-(cinnolin-4-yloxy)bicyclo[3.1.0]hexan-6-yl)-3-hydroxypropyl)benzamide]
0.2 to 2 µM	CC[C@@H](NC(=O)c1ccc(C#N)cc1)[C@H]1[C@@H]2C[C@@H](n3cc(C4CCOC4)nn3)C[C@@H]21 (stereo partly drawn) [Compound 295, 4-cyano-N-((1R)-1-((1R,3S,5S,6r)-3-(4-(tetrahydrofuran-3-yl)-1H-1,2,3-triazol-1-yl)bicyclo[3.1.0]hexan-6-yl)propyl)benzamide]
> 5 µM	O=C(NC1C2CN(c3ccnc4ccc(F)cc34)CC21)C(CO)c1ccccc1 (stereo not shown) [Compound 110, N-(3-(6-fluoroquinolin-4-yl)-3-azabicyclo[3.1.0]hexan-6-yl)-3-hydroxy-2-phenylpropanamide]
< 0.2 µM	CC[C@@H](NC(=O)c1ccc(Cl)cc1)[C@H]1[C@@H]2C[C@@H](n3cc(C(=O)OC)cn3)C[C@@H]21 [Compound 326, methyl 1-((1R,3S,5S,6r)-6-((R)-1-(4-chlorobenzamido)propyl)bicyclo[3.1.0]hexan-3-yl)-1H-pyrazole-4-carboxylate]
0.2 to 2 µM	Cc1cccc(C(=O)NC[C@@H]2[C@H]3C[C@H](n4cnc5cc(F)c(F)cc54)C[C@@H]23)c1 [Compound 323, N-(((1R,3s,5S,6r)-3-(5,6-difluoro-1H-benzo[d]imidazol-1-yl)bicyclo[3.1.0]hexan-6-yl)methyl)-3-methylbenzamide]
< 0.2 µM	O=C(NC[C@@H]1[C@H]2C[C@H](n3cnc4cc(F)c(F)cc43)C[C@@H]12)c1ccc(Cl)c(F)c1 [Compound 315, 4-chloro-N-(((1R,3s,5S,6r)-3-(5,6-difluoro-1H-benzo[d]imidazol-1-yl)bicyclo[3.1.0]hexan-6-yl)methyl)-3-fluorobenzamide]
